Test results: paper PMC6225228, “Design, Synthesis and Evaluation of N-pyrazinylbenzamides as Potential Antimycobacterial Agents” (Molecules : A Journal of Synthetic Chemistry and Natural …, 2018)
Values after ≈ are worked out from the molar mass of the structure shown. Like-named read-outs stand apart in the source and are kept apart here.

How the values were obtained:
[1] = system: Staphylococcus aureus H 5996/08 methicillin resistant; assay: microbe, parasite or virus in culture; format: cell-based; conditions: for MIC: Staphylococcus aureus, MRSA, read-out: MIC MRSA
[2] = system: Escherichia coli CCM 4517; assay: Antibacterial microdilution broth, EC; format: cell-based; conditions: Escherichia coli, read-out: MIC EC
[3] = system: Candida tropicalis 156; assay: Antifungal microdilution broth, CT; format: cell-based; conditions: read-out: MIC CT
[4] = system: Enterococcus sp. J 14365/08; assay: Antibacterial microdilution broth, EF; format: cell-based; conditions: Enterococcus, read-out: MIC EF
[5] = system: Mycobacterium tuberculosis H37Rv CNCTC My 331/88 (ATCC 27294); assay: Antimycobacterial microdilution MABA, M. tuberculosis; format: cell-based; conditions: for MIC: Mycobacterium tuberculosis; for Mtb H37Rv ATCC 27294 MIC: Middlebrook 7H9 with OADC growth supplement, pH = 6.6, MABA
[6] = system: Trichosporon asahii 1188; assay: Antifungal microdilution broth, TA; format: cell-based; conditions: read-out: MIC TA
[7] = system: Candida albicans ATCC 44859; assay: Antifungal microdilution broth, CA; format: cell-based; conditions: Candida albicans, read-out: MIC CA
[8] = system: Mycobacterium smegmatis CCM 4622 (ATCC 607); assay: Antimycobacterial microdilution, M. smegmatis; format: cell-based; conditions: Mycolicibacterium smegmatis, read-out: M. smeg. ATCC 607 MIC
[9] = system: Lichtheimia corymbifera 272; assay: Antifungal microdilution broth, LC; format: cell-based; conditions: read-out: MIC LC
[10] = system: Candida glabrata 20/I; assay: Antifungal microdilution broth, CG; format: cell-based; conditions: Nakaseomyces glabratus, 20/I, read-out: MIC CG
[11] = system: M. avium ssp. avium CNCTC My 80/72 (ATCC 15769); assay: Antimycobacterial microdilution MABA, M. avium; format: cell-based, Mycobacterium avium; conditions: Mycobacterium avium, ATCC15769, pH 6.6, read-out: M. avium ATCC 15769 MIC
[12] = system: Aspergillus fumigatus 231; assay: Antifungal microdilution broth, AF; format: cell-based; conditions: read-out: MIC AF
[13] = system: Candida krusei E28; assay: Antifungal microdilution broth, CK; format: cell-based; conditions: Pichia kudriavzevii, read-out: MIC CK
[14] = system: Trichophyton interdigitale 445; assay: Antifungal microdilution broth, TI; format: cell-based; conditions: read-out: MIC TI
[15] = system: M. kansasii CNCTC My 235/80 (ATCC 12478); assay: Antimycobacterial microdilution MABA, M. kansasii; format: cell-based, Mycobacterium kansasii; conditions: Mycobacterium kansasii, ATCC12478, pH 6.6, read-out: M. kans. ATCC 12478 MIC, Middlebrook 7H9 with OADC, pH 6.6, MABA
[16] = system: eight fungal strains of clinical importance; assay: Antifungal microdilution, all tested fungal strains; format: cell-based; conditions: Trichophyton interdigitale, read-out: MIC, all tested fungal strains
[17] = system: Staphylococcus aureus CCM 4516/08; assay: Antibacterial microdilution broth, SA; format: cell-based; conditions: Staphylococcus aureus
[18] = system: Staphylococcus epidermidis H 6966/08; assay: Antibacterial microdilution broth, SE; format: cell-based; conditions: read-out: MIC SE
[19] = human, HepG2 cells
[20] = system: Pseudomonas aeruginosa CCM 1961; assay: Antibacterial microdilution broth, PA; format: cell-based; conditions: Pseudomonas aeruginosa, read-out: MIC PA
[21] = read-out: Mtb H37Rv ATCC 27294 MIC, Middlebrook 7H9 with OADC growth supplement, pH = 6.6, MABA
[22] = Trichosporon asahii, 1188, 24 h
[23] = Trichosporon asahii, 1188, 48 h
[24] = Lichtheimia corymbifera, 272, 24 h
[25] = Lichtheimia corymbifera, 272, 48 h
[26] = Aspergillus fumigatus, 231, 24 h
[27] = Aspergillus fumigatus, 231, 48 h
[28] = Trichophyton interdigitale, 445, 72 h
[29] = Trichophyton interdigitale, 445, 120 h
[30] = CCM4516, 24 h, read-out: MIC SA, 24 h
[31] = CCM4516, 48 h, read-out: MIC SA, 48 h
[32] = Staphylococcus epidermidis, H6966/08, 24 h
[33] = Staphylococcus epidermidis, H6966/08, 48 h

SMILES | MIC ([1]; 24 h) | MIC ([1]; 48 h) | MIC ([2]; CCM4517, 24 h) | MIC ([2]; CCM4517, 48 h) | MIC ([3]; Candida tropicalis, 156, 24 h) | MIC ([3]; Candida tropicalis, 156, 48 h) | MIC ([4]; SP.J14365/08, 24 h) | MIC ([4]; SP.J14365/08, 48 h) | MIC [5, 21] | MIC [6, 22] | MIC [6, 23] | MIC ([7]; ATCC44859, 24 h) | MIC ([7]; ATCC44859, 48 h) | MIC [8] | MIC [9, 24] | MIC [9, 25] | MIC ([10]; 24 h) | MIC ([10]; 48 h) | MIC [11] | MIC [12, 26] | further results
CC(=O)Oc1ccccc1C(=O)Nc1cnc(Cl)cn1 [Compound 2b-Ac] | 125 µM (≈ 36.5 µg/mL) | 250 µM (≈ 72.9 µg/mL) | > 250 µM | > 250 µM | 250 µM (≈ 72.9 µg/mL) | 250 µM (≈ 72.9 µg/mL) | 250 µM (≈ 72.9 µg/mL) | > 250 µM | 12.5 µg/mL | 125 µM (≈ 36.5 µg/mL) | 125 µM (≈ 36.5 µg/mL) | 125 µM (≈ 36.5 µg/mL) | 125 µM (≈ 36.5 µg/mL) | 31.2 µg/mL (≈ 107 µM) | 125 µM (≈ 36.5 µg/mL) | 125 µM (≈ 36.5 µg/mL) | 250 µM (≈ 72.9 µg/mL) | 250 µM (≈ 72.9 µg/mL) | 50 µg/mL (≈ 171 µM) | 250 µM (≈ 72.9 µg/mL) | MIC ([5]; read-out: Mtb MIC, molar concentration): 42.9 µM; MIC [12, 27]: 250 µM (≈ 72.9 µg/mL); MIC ([13]; E28, 24 h): 125 µM (≈ 36.5 µg/mL); MIC ([13]; E28, 48 h): 125 µM (≈ 36.5 µg/mL); MIC [14, 28]: 250 µM (≈ 72.9 µg/mL); MIC [14, 29]: 250 µM (≈ 72.9 µg/mL); MIC [15]: 12.5 µg/mL (≈ 42.9 µM); MIC [16]: 125 to 250 µM (≈ 36.5 to 72.9 µg/mL); MIC [17, 30]: 62.5 µM (≈ 18.2 µg/mL); MIC [17, 31]: 125 µM (≈ 36.5 µg/mL); MIC [18, 32]: 125 µM (≈ 36.5 µg/mL); MIC [18, 33]: 250 µM (≈ 72.9 µg/mL); IC50 at 24 h [19]: 95.4 µM; MIC ([20]; CCM1961, 72 h): > 250 µM; MIC ([20]; CCM1961, 120 h): > 250 µM
O=C(Nc1cnc(Cl)cn1)c1cccc(O)c1 [Compound 2c] | > 500 µM | > 500 µM | > 500 µM | > 500 µM | > 500 µM | > 500 µM | > 500 µM | > 500 µM | > 100 µg/mL | > 500 µM | > 500 µM | 500 µM (≈ 125 µg/mL) | > 500 µM | ≥ 500 µg/mL | > 500 µM | > 500 µM | > 500 µM | > 500 µM | > 100 µg/mL | > 500 µM | MIC MRSA ([1]; 24 h): >500 µM; MIC MRSA ([1]; 48 h): >500 µM; melting point: 190.1 to 190.8 °C; Mtb H37Rv ATCC 27294 MIC [5]: >100 µg/mL; MIC [12, 27]: > 500 µM; MIC ([13]; E28, 24 h): > 500 µM; MIC ([13]; E28, 48 h): > 500 µM; MIC [14, 28]: > 500 µM; MIC [14, 29]: > 500 µM; MIC [15]: > 100 µg/mL; MIC [16]: ≥ 500 µM; MIC [17, 30]: 500 µM (≈ 125 µg/mL); MIC [17, 31]: 500 µM (≈ 125 µg/mL); MIC ([18]; 24 h): >500 µM; MIC ([18]; 48 h): >500 µM; MIC [18, 32]: > 500 µM; MIC [18, 33]: > 500 µM; MIC ([20]; CCM1961, 72 h): > 500 µM; MIC ([20]; CCM1961, 120 h): > 500 µM
O=C(Nc1cnc(Cl)cn1)c1ccc(O)cc1 [Compound 2d] | > 500 µM | > 500 µM | > 500 µM | > 500 µM | > 500 µM | > 500 µM | > 500 µM | > 500 µM | > 100 µg/mL | > 500 µM | > 500 µM | 500 µM (≈ 125 µg/mL) | > 500 µM | ≥ 500 µg/mL | > 500 µM | > 500 µM | > 500 µM | > 500 µM | > 100 µg/mL | > 500 µM | MIC MRSA ([1]; 24 h): >500 µM; MIC MRSA ([1]; 48 h): >500 µM; melting point: 210.9 to 212.6 °C; Mtb H37Rv ATCC 27294 MIC [5]: >100 µg/mL; MIC [12, 27]: > 500 µM; MIC ([13]; E28, 24 h): > 500 µM; MIC ([13]; E28, 48 h): > 500 µM; MIC [14, 28]: > 500 µM; MIC [14, 29]: > 500 µM; MIC [15]: > 100 µg/mL; MIC [16]: ≥ 500 µM; MIC [17, 30]: 31.2 µM (≈ 7.8 µg/mL); MIC [17, 31]: 31.2 µM (≈ 7.8 µg/mL); MIC [18, 32]: 500 µM (≈ 125 µg/mL); MIC [18, 33]: 500 µM (≈ 125 µg/mL); MIC ([20]; CCM1961, 72 h): > 500 µM; MIC ([20]; CCM1961, 120 h): > 500 µM
